Data as given in US7071197B2, “N,N-disubstituted diazocycloalkanes” (Recordati S.A., priority 2002, dated 2006).
Where two headings read alike, the source gives them in different places.

Key:
human α1d-adrenoceptor = biological target: T1, human α1d-adrenoceptor (Homo sapiens, UniProt P25100); assay: [3H]prazosin binding to cloned human α1-adrenoceptor subtypes (α1d); settings: for Ki: [3H]prazosin, CHO cell membranes, read-out: Binding affinity (Ki, nM) α1d; for α1d/S-HT1A: selectivity: ratio of Ki at α1d and Ki at 5-HT1A
T1 construct: expressed in transfected cells
T1 sequence (P25100 1-572): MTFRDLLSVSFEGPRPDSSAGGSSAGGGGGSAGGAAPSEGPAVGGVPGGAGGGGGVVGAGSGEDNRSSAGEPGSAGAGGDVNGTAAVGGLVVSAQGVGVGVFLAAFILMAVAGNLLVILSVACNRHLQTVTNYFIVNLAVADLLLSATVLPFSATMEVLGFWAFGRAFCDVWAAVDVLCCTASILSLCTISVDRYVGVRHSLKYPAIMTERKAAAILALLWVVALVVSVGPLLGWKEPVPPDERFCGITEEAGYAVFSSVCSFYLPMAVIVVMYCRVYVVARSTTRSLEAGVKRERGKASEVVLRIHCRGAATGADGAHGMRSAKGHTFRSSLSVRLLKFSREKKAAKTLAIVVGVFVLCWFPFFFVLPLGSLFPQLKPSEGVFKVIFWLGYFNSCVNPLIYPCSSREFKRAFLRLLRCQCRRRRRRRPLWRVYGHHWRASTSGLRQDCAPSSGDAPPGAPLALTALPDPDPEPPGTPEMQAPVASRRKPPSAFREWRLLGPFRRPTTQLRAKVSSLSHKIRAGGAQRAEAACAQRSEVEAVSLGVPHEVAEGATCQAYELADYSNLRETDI
Experimental: Binding to cloned human α1-adrenoceptor subtypes was performed in membranes from CHO cells (chinese hamster ovary cells) transfected by electroporation with DNA expressing the gene encoding each α1-adrenoceptor subtype. Cloning and stable expression of the human α1-adrenoceptor gene was performed as previously described (Testa et al. Pharmacol. Comm., 6: 79–86,1995).
CHO cells were grown in suspension in Iscove's modified Dulbecco's medium, supplemented with 10% fetal calf serum and gentamicin (50 μg/ml), at 37° C. in 7% CO2 in an humidified incubator. Cells were collected by centrifugation, lised in ice-cold Tris 5 mM and EDTA 5 mM buffer (pH 7.4) and gently homogenised. Homogenates were centrifuged at 40000×g×20 min and pellets were resuspended in a small volume of ice-cold Tris 5 mM and EDTA 5 mM buffer (pH 7.4) and immediately frozen and stored at −80° C. until use.
CHO cell membranes were resuspended and incubated in 50 mM Tris, pH 7.4, with 0.2 nM [^3H]prazosin, in a final volume of 1.02 ml for 30 min at 25° C., in absence or presence of competing drugs. Non-specific binding was determined in the presence of 10 μM phentolamine. The incubation was stopped by rapid filtration through 0.2% polyethyleneimine pretreated Schleicher & Schuell GF52 filters using a Tomtec (PerkinElmer) cell harvester. The filters were washed with 3×1 ml of ice-cold Tris buffer, dried and the radioactivity was measured in a Betaplate (Wallac) liquid scintillation counter.
The inhibition of specific binding by the compounds was analysed to estimate the IC50 value by the non-linear curve-fitting program Allfit (De Lean et al. Am. J. Physiol. 235, E97-E102, 1978). The IC50 value is converted to an affinity constant (Ki) by the equation of Cheng & Prusoff (Biochem. Pharmacol. 22: 3099–3108, 1973).

[1] = biological target: T2, post-synaptic 5-HT1A receptors (Rattus norvegicus, UniProt P19327); assay: Inhibition of stereotypy (rhythmic forepaw treading) induced by 8-OH-DPAT in rats; assay type: in vivo; settings: for inhibition at 1 mg/kg / inhibition at 3 mg/kg / inhibition at 10 mg/kg / inhibition at 0.01 mg/kg / inhibition at 0.03 mg/kg / inhibition at 0.1 mg/kg / inhibition at 0.3 mg/kg: rat; for inhibition at 1 mg/kg: 1 mg/kg p.o.; for inhibition at 3 mg/kg: 3 mg/kg p.o.; for inhibition at 10 mg/kg: 10 mg/kg p.o.; for inhibition at 0.01 mg/kg: 0.01 mg/kg i.v.; for inhibition at 0.03 mg/kg: 0.03 mg/kg i.v.; for inhibition at 0.1 mg/kg: 0.1 mg/kg i.v.
T2 construct: from tissue; host or cells: whole animal, male Sprague-Dawley rat (in vivo)
T2 sequence (P19327 1-422): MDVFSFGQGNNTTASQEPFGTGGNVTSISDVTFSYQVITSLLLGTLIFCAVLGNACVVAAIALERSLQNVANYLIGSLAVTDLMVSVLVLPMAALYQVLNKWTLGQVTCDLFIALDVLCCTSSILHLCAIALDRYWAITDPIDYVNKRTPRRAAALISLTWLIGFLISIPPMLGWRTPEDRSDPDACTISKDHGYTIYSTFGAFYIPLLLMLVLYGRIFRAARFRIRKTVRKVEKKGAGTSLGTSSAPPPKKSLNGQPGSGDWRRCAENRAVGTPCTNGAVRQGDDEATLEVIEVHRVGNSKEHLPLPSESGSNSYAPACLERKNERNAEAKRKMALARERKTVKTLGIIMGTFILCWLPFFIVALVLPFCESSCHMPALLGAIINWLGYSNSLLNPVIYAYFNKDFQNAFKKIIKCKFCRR
Experimental: The inhibitory effect of 5-HT1A-receptor antagonists on stereotyped forepaw treading induced in rats by subcutaneous injection of 8-OH-DPAT was evaluated by the method of Tricklebank (Tricklebank et al., Eur. J. Pharmacol., 117: 15, 1985) with minor modifications as described below.
Male Sprague-Dawley rats [Crl: CD® (SD) IGS BR] weighing 150–175 g from Charles River Italia were used. The animals were housed with free access to food and water and maintained on a forced 12-hour-light/12-hour-dark cycle at 22–24° C. of temperature. On the day of the experiment, the rats were placed singly in clear plastic containers, 10–15 minutes before administration of the vehicle or compounds to be tested. For evaluation of antagonistic activity after intravenous or oral administration, the compounds were administered 1 and 4 hours before induction of stereotypy by 8-OH-DPAT (1 mg/kg subcutaneously). Observation sessions lasted 30 seconds and began 3 minutes after 8-OH-DPAT treatment and were repeated every 3 minutes over a period of 15 minutes.
The appearance of the symptom induced by postsynaptic stimulation of 5-HT1A receptors was noted, and the intensity was scored using an intensity scale in which: 0=absent, 1=equivocal, 2=present and 3=intense. Behavioural scores for treated rats were accumulated throughout the observation time (5 observation periods) and expressed as mean values of 4 rats/dose. Change in mean values of treated animals in comparison with control (vehicle) group, expressed as per-cent inhibition, was used to quantify the antagonistic activity.

[2] = after intravenous administration
[3] = iv, 0.3 mg/kg i.v., 1 h before 8-OH-DPAT
[4] = iv, 0.3 mg/kg i.v., 4 h before 8-OH-DPAT
[5] = po, 0.3 mg/kg p.o., 1 h before 8-OH-DPAT
[6] = po, 0.3 mg/kg p.o., 4 h before 8-OH-DPAT

| Ki (human α1d-adrenoceptor) [nM] | α1d/S-HT1A (human α1d-adrenoceptor) | ED75 (equieffective dose inhibiting the forepaw treading by 75%) ([1]; 1 h p.o.) | ED75 (equieffective dose inhibiting the forepaw treading by 75%) ([1]; 4 h p.o.) | inhibition at 1 mg/kg ([1]; po, 1 h before 8-OH-DPAT) [%] | inhibition at 1 mg/kg ([1]; po, 4 h before 8-OH-DPAT) [%] | inhibition at 3 mg/kg ([1]; po, 1 h before 8-OH-DPAT) [%] | inhibition at 3 mg/kg ([1]; po, 4 h before 8-OH-DPAT) [%] | ED75 (equieffective dose inhibiting the forepaw treading by 75%) ([1]; 1 h i.v.) | ED75 (equieffective dose inhibiting the forepaw treading by 75%) ([1]; 4 h i.v.) | potency in inhibiting forepaw treading, comparison [1, 2] | inhibition at 0.01 mg/kg ([1]; iv, 1 h before 8-OH-DPAT) [%] | inhibition at 0.01 mg/kg ([1]; iv, 4 h before 8-OH-DPAT) [%] | inhibition at 0.03 mg/kg ([1]; iv, 1 h before 8-OH-DPAT) [%] | inhibition at 0.03 mg/kg ([1]; iv, 4 h before 8-OH-DPAT) [%] | inhibition at 0.1 mg/kg ([1]; iv, 1 h before 8-OH-DPAT) [%] | inhibition at 0.1 mg/kg ([1]; iv, 4 h before 8-OH-DPAT) [%] | inhibition at 0.3 mg/kg [1, 3] [%] | inhibition at 0.3 mg/kg [1, 4] [%] | inhibition at 0.3 mg/kg [1, 5] [%] | SMILES | further results |
| --- | --- | --- | --- | --- | --- | --- | --- | --- | --- | --- | --- | --- | --- | --- | --- | --- | --- | --- | --- | --- | --- |
| 1 | 7.7 | 1 h p.o.: ED75 = 3.3 mg/kg/ | 4 h p.o.: ED75 = 4.0 mg/kg | 35 | 37 | 84 | 72 | – | – | – | – | – | – | – | – | – | – | – | – | COc1ccccc1N1CCN(CC[C@@H](c2ccccc2F)[C@H](O)C2CCCCC2)CC1 (racemic) [Ex. 1, 1-[(SR-RS)-4-cyclohexyl-4-hydroxy-3-(2-fluorophenyl)-butyl]-4-(2-methoxyphenyl)-piperazine] | inhibition at 10 mg/kg ([1]; po, 1 h before 8-OH-DPAT): 100%; inhibition at 10 mg/kg ([1]; po, 4 h before 8-OH-DPAT): 96% |
| 0.5 | 0.8 | 1 h p.o.: ED75 = 2.1 mg/kg/ | – | 42 | 46 | 90 | 67 | 1 h i.v.: ED75 = 0.032 mg/kg/ | 4 h i.v.: ED75 = 0.138 mg/kg | practically equipotent | 41 | 26 | 82 | 54 | 100 | 72 | 100 | 85 | 8 | COc1ccccc1N1CCN(CC[C@H](c2ccccc2)[C@@H](O)C2CCCCC2)CC1 (racemic) [Ex. 5, 1-[(RS,SR)-4-Cyclohexyl-4-hydroxy-3-phenyl-butyl]-4-(2-methoxyphenyl)-piperazine, reference compound] | ED75 (equieffective dose inhibiting the forepaw treading by 75%) [1]: 4 h p.o.: ED75 = 4.6 mg/kg; inhibition at 0.3 mg/kg [1, 6]: 20% |
| 1.2 | 3.2 | 1 h p.o.: ED75 = 1.7 mg/kg/ | 4 h p.o.: ED75 = 2.6 mg/kg | 58 | 38 | 92 | 85 | 1 h i.v.: ED75 = 0.038 mg/kg/ | 4 h i.v.: ED75 = 0.182 mg/kg | practically equipotent | 37 | 11 | 72 | 35 | 100 | 65 | 100 | 84 | 18 | COc1ccccc1N1CCN(CC[C@H](c2ccccc2F)[C@@H](O)C2CCCCC2)CC1 [Ex. 1Y, 1-[(3R,4S)-4-cyclohexyl-4-hydroxy-3-(2-fluorophenyl)-butyl]-4-(2-methoxyphenyl)-piperazine] | potency in inhibiting forepaw treading, comparison ([1]; after oral administration, in particular at four hours): more potent than Ex. 5; inhibition at 0.3 mg/kg [1, 6]: 18% |
| 0.5 | 2.1 | – | – | – | – | – | – | 1 h i.v.: ED75 = 0.041 mg/kg/ | 4 h i.v.: ED75 = 0.152 mg/kg | practically equipotent | 39 | 6 | 65 | 49 | 100 | 63 | 100 | 89 | – | COc1ccccc1N1CCN(CC[C@H](c2ccccc2F)[C@H](O)C2CCCCC2)CC1 [Ex. 2X, 1-[(3R,4R)-4-cyclohexyl-4-hydroxy-3-(2-fluorophenyl)-butyl]-4-(2-methoxyphenyl)-piperazine] | – |
